According to US7241785B2, “Five-membered heterocyclic alkanoic acid derivative” (Takeda Pharmaceutical Company Limited, priority 2001, dated 2007):
pEC50: −log10 of the molar value.

What was measured:
[1] = target: T1, PPARδ-RXRα heterodimer (Homo sapiens, UniProt Q03181); assay: PPARδ-RXRα heterodimer ligand activity (luciferase reporter, PPARδ:RXRα:4ERPP/CHO-K1 cells); assay type: cell-based; set-up: expressed in transfected cells; conditions: concentration for 50% of maximum fold induction of luciferase, 48 hrs
T1 sequence (Q03181 1-441): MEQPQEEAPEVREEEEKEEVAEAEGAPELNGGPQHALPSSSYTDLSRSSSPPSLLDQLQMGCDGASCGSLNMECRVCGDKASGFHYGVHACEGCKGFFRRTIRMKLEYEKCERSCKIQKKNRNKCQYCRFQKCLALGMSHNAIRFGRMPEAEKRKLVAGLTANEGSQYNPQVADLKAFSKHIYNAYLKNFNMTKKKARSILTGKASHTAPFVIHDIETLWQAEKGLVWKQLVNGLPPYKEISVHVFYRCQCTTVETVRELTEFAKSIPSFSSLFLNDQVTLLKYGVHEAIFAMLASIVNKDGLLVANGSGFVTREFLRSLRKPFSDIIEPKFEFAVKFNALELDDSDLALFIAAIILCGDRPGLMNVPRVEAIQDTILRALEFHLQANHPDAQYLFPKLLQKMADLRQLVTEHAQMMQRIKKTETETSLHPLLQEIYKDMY
T1 sequence (P19793 1-462 partner): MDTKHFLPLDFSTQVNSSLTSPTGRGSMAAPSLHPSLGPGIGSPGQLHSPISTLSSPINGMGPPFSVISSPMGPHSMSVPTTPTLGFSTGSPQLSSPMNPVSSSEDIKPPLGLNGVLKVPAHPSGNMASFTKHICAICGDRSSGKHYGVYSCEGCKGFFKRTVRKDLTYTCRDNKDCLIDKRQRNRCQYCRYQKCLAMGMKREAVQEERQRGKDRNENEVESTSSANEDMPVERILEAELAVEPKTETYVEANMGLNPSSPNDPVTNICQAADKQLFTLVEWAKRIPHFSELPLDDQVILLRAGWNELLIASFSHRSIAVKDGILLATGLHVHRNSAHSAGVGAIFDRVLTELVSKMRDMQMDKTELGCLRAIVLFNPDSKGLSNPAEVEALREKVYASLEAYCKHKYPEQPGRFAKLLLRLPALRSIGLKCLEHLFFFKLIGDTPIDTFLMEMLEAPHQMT
Procedure: PPARδ-RXRα Heterodimer Ligand Activity
PPARδ:RXRα:4ERPP/CHO-K1 cells obtained in Reference Example 5a were cultured in HAM F12 medium (produced by NISSUI SEIYAKU) containing 10% fetal bovine serum (produced by Life Technologies, Inc., USA) and then seeded in a 96-well white plate (produced by Corning Costar Corporation, USA) at the density of 2×10^4 cells/well, and cultured in a CO2 gas incubator at 37° C. overnight.
After washing the 96 well white plate with PBS (Phosphate-buffered saline), 90 μl of HAM F12 medium containing 0.1% fatty acid-free bovine serum albumin (BSA) and 10 μl of test compound were added, and the cells were cultured in a CO2 gas incubator at 37° C. for 48 hrs. After removing the medium, 40 μl of PicaGene 7.5 (produced by Wako Pure Chemical Industries, Ltd.) was added. After stirring, the luciferase activity was determined using Lumistar (produced by BMG Labtechnologies GmbH, Germany).
The fold induction was calculated from the luciferase activity of each test compound when the luciferase activity in the non-treatment group is taken as 1. The values of the test compound concentration and the fold induction were analyzed using PRISM 2.01 (produced by GraphPad Software Inc. USA) to calculate the EC50 values, the effective concentration of a test compound for 50% of the maximum fold induction. […]

Cc1oc(-c2ccccc2)nc1COc1ccc(Sc2nc(-c3ccccc3)c(CCC(=O)O)o2)cc1 [Example 10, 3-[2-[4-(5-methyl-2-phenyl-4-oxazolylmethoxy)phenylthio]-4-phenyl-5-oxazolyl]propionic acid]
melting point: 136 to 137 °C
pEC50 [1]: 5.68
